Results from PubChem BioAssay (NCI).
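All cell lines were grown in 96-well plates and treated with compound for 48 hours. Here, GI50 denotes the concentration required for 50% inhibition of growth. TGI: total growth inhibition.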

Columns and labels:
Assay in all cases: growth of human tumour cells (NCI), 48 h
[1] = system: NCI/ADR-RES ovarian
[2] = system: SK-MEL-5 melanoma
[3] = system: HOP-62 NSCLC
[4] = system: ACHN renal
[5] = system: SNB-19 CNS
[6] = system: SF-295 CNS
[7] = system: OVCAR-5 ovarian
[8] = system: HL-60(TB) leukemia
[9] = system: KM12 colon
[10] = system: RXF 393 renal

Row | Compound | TGI [1] [µM] | TGI [2] [µM] | TGI [3] [µM] | TGI [4] [µM] | TGI [5] [µM] | TGI [6] [µM] | TGI [7] [µM] | TGI [8] [µM] | TGI [9] [µM] | TGI [10] [µM] | GI50 [1] [µM] | GI50 [3] [µM] | GI50 [4] [µM] | GI50 [6] [µM] | GI50 [7] [µM] | GI50 [8] [µM] | GI50 [10] [µM]
1 | C[C@H]1C[C@H]2[C@@H]3C(C)(C)O[C@]4(O)C(=O)[C@]5(O)[C@@H](C)CC[C@H]1[C@]25C(=O)[C@]34C | > 100 | 81.7 | > 100 | 72.6 | > 100 | 77.5 | > 100 | 59.2 | 99.7 |  |  |  |  |  |  |  | 
2 | c1ccc2c(c1)CCc1c-2n(CCN2CCOCC2)c2ccccc12 | > 100 | 51.2 | > 100 | > 100 | > 100 | > 100 | > 100 |  | 27.3 |  |  |  |  |  |  |  | 
3 | CC(=O)Oc1c2oc3ccc(Cl)cc3c(=O)c2c(O)c2ccsc12 | > 100 | > 100 | > 100 | > 100 | > 100 | > 100 | > 100 | > 100 | > 100 | > 100 |  |  |  |  |  |  | 
4 | O=c1[nH]nc(-c2ccccc2)n1/N=C/c1cccnc1 | > 100 | > 100 | > 100 | > 100 | > 100 | > 100 | > 100 | > 100 | > 100 | > 100 |  |  |  |  |  |  | 
5 | COc1c(O)cc(O)c2c(=O)cc(-c3ccccc3)oc12 | > 100 | > 100 | 49.8 | > 100 | > 100 | > 100 | > 100 | 57.3 | > 100 | 42.7 |  |  |  |  |  |  | 
6 | OC(CCNCc1ccccc1)c1ccc2ccccc2c1 (stereo not given) | 49.4 | 32.4 | 33.5 | 41.5 | 47.9 | 63.9 | 75.4 | 43.2 | 31.7 | 37.1 |  |  |  |  |  |  | 
7 | CCOC(=O)c1c(N2CCCC2)ncn(Cc2ccccc2)c1=S | > 100 | > 100 | > 100 | > 100 | > 100 | > 100 | > 100 | > 100 | > 100 | > 100 |  |  |  |  |  |  | 
8 | O=c1cc(N2CCN(c3cc(=O)n4ccccc4n3)CC2)oc2ccccc12 | > 100 | > 100 |  | > 100 | > 100 | > 100 | > 100 |  | > 68.5 | > 100 |  |  |  |  |  |  | 
9 | Cc1c2c(n(CCc3ccc(Cl)cc3)c1C)NC(c1ccccc1)C(C#N)S2(=O)=O (stereo not given) | > 100 | 14.3 | > 100 | > 100 | > 100 | > 100 | > 100 | > 100 | > 100 |  |  |  |  |  |  |  | 
10 | O=c1oc2ccccc2cc1-c1cn2cc(Cl)ccc2n1 | 2.73 | 19.1 | 6.22 | 3.31 | 3.66 | 5.36 | 33.3 | > 61.7 | 12.1 | 9.48 |  |  |  |  |  |  | 
11 | COC(=O)c1c(OC(C)=O)ccc2c1c1c(n2C)C(=O)c2ccccc2C1=O | > 100 | 47 | 67.4 | 51.5 | > 100 | 67.8 | > 100 | > 100 | 86.4 | > 100 |  |  |  |  |  |  | 
12 | COC(=O)C(CSSC[C@H](N/C(C)=C/C(C)=O)C(=O)OC)N/C(C)=C/C(C)=O (stereo not given in full) | > 100 | > 100 | > 100 | 17.1 | > 100 | > 100 | 39.2 | > 100 | > 100 | 52.7 |  |  |  |  |  |  | 
13 | Cc1c(NC(=O)CSC(=S)N2CCN(Cc3ccccc3)CC2)c(=O)n(-c2ccccc2)n1C | > 100 | > 100 | > 100 | > 100 | > 100 | > 100 | > 100 |  | > 100 | > 100 |  |  |  |  |  |  | 
14 | CCOP(=O)(OCC)C1CC(n2cc(C)c(=O)[nH]c2=O)OC1CO (stereo not given) |  | > 100 | > 100 | > 100 | > 100 | > 100 | > 100 | > 100 | > 100 | > 100 |  |  |  |  |  |  | 
15 | O=C1C(=O)c2ccccc2C(O)=C1CCCc1ccc(Oc2ccccc2)cc1 |  | 10.6 | 23.2 | 76.5 | > 100 | 74.3 | > 100 | 47.9 | > 100 | 64.1 |  |  |  |  |  |  | 
16 | COc1ccc(C(=O)/C=C/c2c(Cl)c3c(c(OC)c2Cl)OCC(=O)N3)cc1 | 7.08 |  | 6.96 | 3.64 |  | 32.7 | > 100 | 10.6 |  | 3.54 | 2.62 | 2.8 | 1.79 | 3.23 | 3.86 | 2.49 | 1.79
17 | COc1ccc2c(c1)c(CC(=O)O)c(C)n2C(=O)c1ccc(Cl)cc1 | > 100 | > 100 | > 100 | > 100 | > 100 | > 100 | > 100 | > 100 | > 100 |  |  |  |  |  |  |  | 
18 | CC1CC/C(=C\c2ccc(Cl)cc2)C2OC(N)=C(C#N)C(c3ccc(Cl)cc3)=C12 (stereo not given) | 25.9 | 32.1 | 9.84 | 29.9 | 39.6 |  | 37.5 | 27.4 | 28.8 | 71.8 |  |  |  |  |  |  | 
19 | COc1ccc2nc3cc([N+](=O)[O-])ccc3c(Nc3ccc(S(=O)(=O)NC(C)=O)cc3)c2c1 |  | > 100 | > 100 | > 100 | > 100 | > 100 | > 100 | > 100 |  | > 100 |  |  |  |  |  |  | 
20 | COc1cc(C(C)c2cc3c(cc2OCCO)OCO3)cc(OC)c1OC (stereo not given) |  | > 100 | > 100 | > 100 | > 100 | 2.24 | > 100 | 2.02 |  | 3.43 |  |  |  |  |  |  | 
21 | CCOC(=O)Cc1cc(OC)c(OC)cc1/C(Cl)=C(\C=O)c1ccc(OC)c(OC)c1 |  | 35.1 | 46.9 | 55.6 | > 100 | 29 |  | 40.9 |  | > 100 |  |  |  |  |  |  | 
22 | N#Cc1c(-c2ccc(Cl)cc2)c2c(n(C3OC(CO)C(O)C(O)C3O)c1=S)CCC2 (stereo not given) | > 100 | 26 | 57 | > 100 | 71 |  | > 100 | > 100 | > 100 | 63.2 |  |  |  |  |  |  | 
